Test results taken from patent publication US8134015B2, “Compound inhibiting in vivo phosphorous transport and medicine containing the same” (Kyowa Hakko Kirin Co., Ltd., priority 2003, dated 2012).

How the values were obtained:
rat NaPi-2b = target: T1, rat NaPi-2b (Rattus norvegicus, UniProt Q9JJ09); assay: Sodium-dependent phosphate uptake of Xenopus oocytes which expressed NaPi-2b (32P); format: cell-based; settings: for IC50: Xenopus oocytes expressing rat NaPi-2b, 32P radioactive phosphorus, read-out: IC50 (phosphate uptake inhibitory activity)
T1 construct: expressed in transfected cells; host or cells: Xenopus oocytes injected with cRNA
T1 sequence (Q9JJ09 1-695): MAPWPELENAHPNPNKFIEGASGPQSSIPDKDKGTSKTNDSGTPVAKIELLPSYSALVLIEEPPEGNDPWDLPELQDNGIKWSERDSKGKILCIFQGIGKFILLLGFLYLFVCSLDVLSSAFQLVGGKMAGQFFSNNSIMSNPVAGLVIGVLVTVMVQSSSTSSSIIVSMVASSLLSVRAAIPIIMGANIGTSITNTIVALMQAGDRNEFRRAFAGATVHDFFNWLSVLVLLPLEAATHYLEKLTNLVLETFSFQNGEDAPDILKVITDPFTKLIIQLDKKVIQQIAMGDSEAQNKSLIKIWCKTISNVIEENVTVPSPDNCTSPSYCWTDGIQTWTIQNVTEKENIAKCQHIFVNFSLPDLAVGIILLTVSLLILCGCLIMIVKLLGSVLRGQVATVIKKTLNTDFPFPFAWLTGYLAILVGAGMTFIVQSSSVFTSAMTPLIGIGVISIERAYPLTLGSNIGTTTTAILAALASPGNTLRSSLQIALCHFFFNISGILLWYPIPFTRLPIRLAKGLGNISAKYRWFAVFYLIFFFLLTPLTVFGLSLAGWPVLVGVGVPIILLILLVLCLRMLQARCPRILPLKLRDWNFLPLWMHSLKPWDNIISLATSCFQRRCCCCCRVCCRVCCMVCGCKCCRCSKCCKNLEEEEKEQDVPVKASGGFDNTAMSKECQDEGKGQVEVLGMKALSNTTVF
Outline: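 Inhibition at 300 μM and 100 μM was read off one inhibition curve of 32P phosphate uptake. Uptake was measured in Xenopus oocytes cultured 2 days after injection of cRNA for cloned rat NaPi-2b.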

human NaPi-2a = target: T2, human NaPi-2a (Homo sapiens, UniProt Q06495); assay: Sodium-dependent phosphate uptake of Xenopus oocytes which expressed NaPi-2a (32P); format: cell-based; settings: Xenopus oocytes expressing human NaPi-2a; for IC50: phosphate uptake, five concentration levels
T2 construct: expressed in transfected cells
T2 sequence (Q06495 1-639): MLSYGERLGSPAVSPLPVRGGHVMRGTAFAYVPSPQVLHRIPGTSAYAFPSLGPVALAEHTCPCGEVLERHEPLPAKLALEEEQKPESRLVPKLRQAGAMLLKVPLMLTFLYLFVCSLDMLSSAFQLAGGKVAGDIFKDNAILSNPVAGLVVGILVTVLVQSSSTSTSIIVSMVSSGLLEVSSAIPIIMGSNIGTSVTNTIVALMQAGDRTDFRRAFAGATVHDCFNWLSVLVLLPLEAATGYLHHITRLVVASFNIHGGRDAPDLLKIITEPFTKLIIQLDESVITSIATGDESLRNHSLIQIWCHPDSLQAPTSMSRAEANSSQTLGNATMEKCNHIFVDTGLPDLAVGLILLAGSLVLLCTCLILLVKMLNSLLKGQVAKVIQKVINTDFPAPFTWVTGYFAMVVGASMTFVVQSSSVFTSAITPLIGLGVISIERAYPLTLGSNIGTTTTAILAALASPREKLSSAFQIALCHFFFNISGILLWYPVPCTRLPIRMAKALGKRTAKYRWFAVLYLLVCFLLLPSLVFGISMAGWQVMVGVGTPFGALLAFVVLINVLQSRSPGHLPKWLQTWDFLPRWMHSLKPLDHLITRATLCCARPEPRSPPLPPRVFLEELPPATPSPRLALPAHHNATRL
Description: Experiment of Sodium-Dependent Phosphate Uptake of Xenopus oocytes which Expressed NaPi-2a
In the test, a group with the addition of choline chloride (Choline Cl) was used as a negative control for nonspecific uptake, and PFA (phosphonoformic acid) was used as a positive control for phosphate transport inhibition.

Row | SMILES | IC50 (rat NaPi-2b) | IC50 (human NaPi-2a) | other results
1 | COc1ccc(C(=O)Nc2ccccc2C(=O)N/N=C/C=C/c2ccccc2)cc1OC [Compound 1, 3,4-Dimethoxy-N-[2-(3-phenyl-allylidene-hydrazinocarbonyl)-phenyl]-benzamide] | 9110 nM | – | phosphate uptake inhibitory activity against NaPi-2a (human NaPi-2a; FIG. 3, FIG. 4): concentration-dependent inhibitory activity
2 | O=C(Nc1ccc(Br)cc1C(=O)N/N=C/c1ccc(Cl)c(C(F)(F)F)c1)c1ccc(CSc2ccncc2)cc1 [Compound 260, N-[4-Bromo-2-(4-chloro-3-trifluoromethyl-benzylidene-hydrazinocarbonyl)-phenyl]-4-(pyridin-4-ylsulfanylmethyl)-benzamide] | < 3000 nM | < 3 µM | –
3 | Cc1ccc(/C=N/NC(=O)c2cc(Br)ccc2NC(=O)c2ccc(CSCCO)cc2)cc1 [Compound 264, N-[4-Bromo-2-(4-methyl-benzylidene-hydrazinocarbonyl)-phenyl]-4-(2-hydroxy-ethylsulfanylmethyl)-benzamide] | < 1000 nM | 4.36 µM | –
4 | COc1ccc(/C=N/NC(=O)c2cc(N3CCOCC3)ccc2NC(=O)c2cccc(CSCCO)c2)cc1 [Compound 1066, 3-(2-Hydroxy-ethylsulfanylmethyl)-N-[2-(4-methoxy-benzylidene-hydrazinocarbonyl)-4-morpholin-4-yl-phenyl]-benzamide] | 2690 nM | – | –
5 | O=C(Nc1ccc(N2CCC(N3CCCCC3)CC2)cc1C(=O)N/N=C/c1ccc(Cl)c(C(F)(F)F)c1)c1cccc(CSCCO)c1 [Compound 1067] | 2790 nM | – | –
6 | COc1ccc(/C=N/NC(=O)c2cc(N3CCC(N4CCCCC4)CC3)ccc2NC(=O)c2cccc(CSCCO)c2)cc1 [Compound 1068] | – | – | inhibition at 100 µM (rat NaPi-2b; phosphate uptake, oocytes expressing rat NaPi-2b, 100 μM, determined from inhibition curve): 74.4%
7 | CC1CCN(c2ccc(NC(=O)c3cccc(CSCCO)c3)c(C(=O)N/N=C/c3ccc(Cl)c(C(F)(F)F)c3)c2)CC1 [Compound 1070, N-[2-(4-Chloro-3-trifluoromethyl-benzylidene-hydrazinocarbonyl)-4-(4-methyl-piperidin-1-yl)-phenyl]-3-(2-hydroxy-ethylsulfanylmethyl)-benzamide] | < 1000 nM | – | –
8 | CN1CCN(c2ccc(NC(=O)c3cccc(CSCCO)c3)c(C(=O)N/N=C/c3ccc(Cl)c(C(F)(F)F)c3)c2)CC1 [Compound 1072, N-[2-(4-Chloro-3-trifluoromethyl-benzylidene-hydrazinocarbonyl)-4-(4-methyl-piperazin-1-yl)-phenyl]-3-(2-hydroxy-ethylsulfanylmethyl)-benzamide] | 3880 nM | – | –
9 | CCN(CC)Cc1cccc(C(=O)Nc2ccc(Cl)cc2C(=O)NOCc2ccccc2)c1 [Compound 1077] | – | – | inhibition at 300 µM (rat NaPi-2b; phosphate uptake, oocytes expressing rat NaPi-2b, 300 μM, determined from inhibition curve): 40.2%

More lines, main results first:

Row | IC50 (rat NaPi-2b) | IC50 (human NaPi-2a) | SMILES | other results
10 | 1100 nM | 4.42 µM | O=C(Nc1ccc(Br)cc1C(=O)N/N=C/c1ccc(F)cc1)c1ccc(CSCCO)cc1 [Compound 262, N-[4-Bromo-2-(4-fluoro-benzylidene-hydrazinocarbonyl)-phenyl]-4-(2-hydroxy-ethylsulfanylmethyl)-benzamide] | –
11 | 1010 nM | 4.04 µM | Cc1csc(NC(=O)c2cccc(CN(CC(C)O)CC(C)O)c2)c1C(=O)N/N=C/c1ccc(Cl)c(C(F)(F)F)c1 (centres unmarked) [Compound 591, 3-{[bis-(2-hydroxy-propyl)-amino]-methyl}-N-[3-(4-chloro-3-trifluoromethyl-benzylidene-hydrazinocarbonyl)-4-methyl-thiophen-2-yl]-benzamide] | –
12 | 11900 nM | 9.51 µM | COc1ccc(/C=N/NC(=O)c2c(C)csc2NC(=O)c2cccc(CN(CC(C)O)CC(C)O)c2)cc1 (centres unmarked) [Compound 592, 3-{[Bis-(2-hydroxy-propyl)-amino]-methyl}-N-[3-(4-methoxy-benzylidene-hydrazinocarbonyl)-4-methyl-thiophen-2-yl]-benzamide] | –
13 | < 1000 nM | 3.53 µM | Cc1ccc(/C=N/NC(=O)c2c(NC(=O)c3cccc(CN(CC(C)O)CC(C)O)c3)sc3c2CCCC3)cc1C (centres unmarked) [Compound 627, 3-{[Bis-(2-hydroxy-propyl)-amino]-methyl}-N-[3-(3,4-dimethyl-benzylidene-hydrazinocarbonyl)-4,5,6,7-tetrahydro-benzo-[b]thiophen-2-yl]-benzamide] | –
14 | 1290 nM | 3.59 µM | Cc1ccc(/C=N/NC(=O)c2c(NC(=O)c3cccc(CN(CC(C)O)CC(C)O)c3)sc3c2CCCC3)cc1 (centres unmarked) [Compound 628, 3-{[Bis-(2-hydroxy-propyl)-amino]-methyl}-N-[3-(4-methyl-benzylidene-hydrazinocarbonyl)-4,5,6,7-tetrahydro-benzo-[b]thiophen-2-yl]-benzamide] | –
15 | 3010 nM | 12.9 µM | CC(O)CN(Cc1cccc(C(=O)Nc2sc3c(c2C(=O)N/N=C/c2ccc(F)cc2)CCCC3)c1)CC(C)O (centres unmarked) [Compound 629, 3-{[Bis-(2-hydroxy-propyl)-amino]-methyl}-N-[3-(4-fluoro-benzylidene-hydrazinocarbonyl)-4,5,6,7-tetrahydro-benzo[b]thiophen-2-yl]-benzamide] | –
16 | < 1000 nM | 3.5 µM | CC(O)CN(Cc1cccc(C(=O)Nc2sc3c(c2C(=O)N/N=C/c2cccc(F)c2)CCCC3)c1)CC(C)O (centres unmarked) [Compound 630, 3-{[Bis-(2-hydroxy-propyl)-amino]-methyl}-N-[3-(3-fluoro-benzylidene-hydrazinocarbonyl)-4,5,6,7-tetrahydro-benzo[b]thiophen-2-yl]-benzamide] | –
17 | < 1000 nM | – | Cc1ccc(/C=N/NC(=O)c2cc(N3CCC(C)CC3)ccc2NC(=O)c2cccc(CSCCO)c2)cc1C [Compound 1069, N-[2-(3,4-Dimethyl-benzylidene-hydrazinocarbonyl)-4-(4-methyl-piperidin-1-yl)-phenyl]-3-(2-hydroxy-ethylsulfanylmethyl)-benzamide] | –
18 | < 1000 nM | – | COc1ccc(/C=N/NC(=O)c2cc(N3CCC(C)CC3)ccc2NC(=O)c2cccc(CSCCO)c2)cc1 [Compound 1071, 3-(2-Hydroxy-ethylsulfanylmethyl)-N-[2-(4-methoxy-benzylidene-hydrazinocarbonyl)-4-(4-methyl-piperidin-1-yl)-phenyl]-benzamide] | –
19 | 20400 nM | – | COc1ccc(/C=N/NC(=O)c2cc(N3CCN(C)CC3)ccc2NC(=O)c2cccc(CSCCO)c2)cc1 [Compound 1073, 3-(2-Hydroxy-ethylsulfanylmethyl)-N-[2-(4-methoxy-benzylidene-hydrazinocarbonyl)-4-(4-methyl-piperazin-1-yl)-phenyl]-benzamide] | –
20 | 1540 nM | – | CCN(CC)CCN(C)Cc1cccc(C(=O)Nc2ccc(N3CCOCC3)cc2C(=O)N/N=C/c2ccc(C)c(C)c2)c1 [Compound 1074, 3-{[(2-Diethylamino-ethyl)-methyl-amino]-methyl}-N-[2-(3,4-dimethyl-benzylidene-hydrazinocarbonyl)-4-morpholin-4-yl-phenyl]-benzamide] | –
21 | 1340 nM | – | CCN(CC)CCN(C)Cc1cccc(C(=O)Nc2ccc(N3CCOCC3)cc2C(=O)N/N=C/c2ccc(Cl)c(C(F)(F)F)c2)c1 [Compound 1075, N-[2-(4-Chloro-3-trifluoromethyl-benzylidene-hydrazinocarbonyl)-4-morpholin-4-yl-phenyl]-3-{[(2-diethylamino-ethyl)-methyl-amino]-methyl}-benzamide] | –
22 | 2570 nM | – | CCN(CC)CCN(C)Cc1cccc(C(=O)Nc2ccc(N3CCOCC3)cc2C(=O)N/N=C/c2ccc(OC)cc2)c1 [Compound 1076, 3-{[(2-Diethylamino-ethyl)-methyl-amino]-methyl}-N-[2-(4-methoxy-benzylidene-hydrazinocarbonyl)-4-morpholin-4-yl-phenyl]-benzamide] | –
